Laboratory results published in ChEMBL document CHEMBL5214948, “Boronic Acid: A Novel Pharmacophore Targeting Src Homology 2 (SH2) Domain of STAT3” (J Med Chem, 2022).

Assays:
[1] = tested on: MGC-803; test: Antiproliferative activity against human MGC-803 cells assessed as reduction in cell viability measured after 72 hrs by CCK-8 assay; type: functional, cell-based; details: MGC-803, 72 h
[2] = tested on: AGS; test: Antiproliferative activity against human AGS cells assessed as reduction in cell viability incubated for 72 hrs by CCK-8 assay; type: functional, cell-based

How did the IC50 [1] turn out when O=C([C@H]1CCN1S(=O)(=O)c1c(F)c(F)c(F)c(F)c1F)N(Cc1ccc(C2CCCCC2)cc1)c1ccc(B(O)O)cc1 was run?
The IC50 was 4830 nM.

What about the IC50 [2] of the same compound?
Its IC50 is 1980 nM.

Which results are given for C[C@@H](C(=O)N(Cc1ccc(C2CCCCC2)cc1)c1ccc(B(O)O)cc1)N(C)S(=O)(=O)c1c(F)c(F)c(F)c(F)c1F?
IC50 [1]: 4710 nM; IC50 [2]: 2570 nM

With C[C@H](C(=O)N(Cc1ccc(C2CCCCC2)cc1)c1ccc(B(O)O)cc1)N(C)S(=O)(=O)c1c(F)c(F)c(F)c(F)c1F as the compound, how does the IC50 [1] read?
Its IC50 is 3130 nM.

And the IC50 [2]?
Its IC50 is 1720 nM.
